Laboratory results: patent US20100129434A1, “COMPOSITIONS AND METHODS FOR THE TREATMENT OF MUCORMYCOSIS AND OTHER FUNGAL DISEASES” (priority 2006, published 2010)
Converted amounts (≈) assume the structure as drawn. Read-outs that look alike come from different tables or passages of the source.

System: R. oryzae
Experiment: Deferasirox susceptibility testing (MIC/MFC), R. oryzae isolates
Type: cell-based, Rhizopus oryzae
Conditions: Rhizopus arrhizus; for MIC90: R. oryzae MIC90/MFC90
Procedure: Minimum inhibitory concentration (MIC) and minimum fungicidal concentration (MFC) were determined for deferasirox by the method of Espinel-Ingroff using R. oryzae spores starved for iron (Espinel-Ingroff, (2001), supra). Cidality was defined as a <4-fold difference between MIC and MFC.
We next determined the deferasirox susceptibilities of multiple clinical isolates of Mucorales (Table 3). The MIC9OS of deferasirox against Mucor, non-oryzae Rhizopus spp., and R. oryzae were 3.12 to 6.25 μg/ml. MFCs were similar to MICs, and deferasirox was cidal for 28/29 (97%) of isolates. Of note, slight growth was seen within the first twelve hours even at extremely high concentrations of deferasirox. […] Furthermore, the MICs and MFCs of deferasirox against these isolates were well below clinically achievable peak (˜38 μg/ml) and trough serum levels (˜17 μg/ml) of the drug at steady state when administered at the FDA-approved starting dose (20 mg/kg/d).

[1] = NRRL6059, 24 h, R. oryzae type I NRRL 6059, 24 h
[2] = NRRL6059, 48 h, R. oryzae type I NRRL 6059, 48 h
[3] = NRRL21409, 48 h, R. oryzae type I NRRL21409, 48 h

SMILES: O=C(O)c1ccc(-n2nc(-c3ccccc3O)nc2-c2ccccc2O)cc1 [Deferasirox, 4-[3,5-Bis(2-hydroxyphenyl)-1H-1,2,4-triazol-1-yl]-benzoic acid]
- MFC (48 h, R. oryzae 729-02, 48 h, read-out: MFC): 6.25 µg/mL (≈ 16.7 µM)
- MIC (48 h, R. oryzae 729-02, 48 h, read-out: MIC): 6.25 µg/mL (≈ 16.7 µM)
- MFC (48 h, R. oryzae HUMC 02, 48 h, read-out: MFC): 1.56 µg/mL (≈ 4.18 µM)
- MIC (48 h, R. oryzae HUMC 02, 48 h, read-out: MIC): 1.56 µg/mL (≈ 4.18 µM)
- MFC (48 h, R. oryzae pyr17 pyrG−/−, 48 h, read-out: MFC): 0.78 µg/mL (≈ 2.09 µM)
- MIC (48 h, R. oryzae pyr17 pyrG−/−, 48 h, read-out: MIC): 0.78 µg/mL (≈ 2.09 µM)
- MFC (48 h, R. orzae type II 10206, 48 h, read-out: MFC): 3.12 µg/mL (≈ 8.36 µM)
- MIC (48 h, R. orzae type II 10206, 48 h, read-out: MIC): 3.12 µg/mL (≈ 8.36 µM)
- MFC [1]: 6.25 µg/mL (≈ 16.7 µM)
- MIC [1]: 6.15 µg/mL (≈ 16.5 µM)
- MFC [2]: 6.25 µg/mL (≈ 16.7 µM)
- MIC [2]: 1.56 µg/mL (≈ 4.18 µM)
- MFC (NRRL10206, 24 h, R. oryzae type I NRRL 10206, 24 h, read-out: MFC): 3.12 µg/mL (≈ 8.36 µM)
- MIC (NRRL10206, 24 h, R. oryzae type I NRRL 10206, 24 h, read-out: MIC): 3.12 µg/mL (≈ 8.36 µM)
- MFC (NRRL10206, 48 h, R. oryzae type I NRRL 10206, 48 h, read-out: MFC): 3.12 µg/mL (≈ 8.36 µM)
- MIC (NRRL10206, 48 h, R. oryzae type I NRRL 10206, 48 h, read-out: MIC): 3.12 µg/mL (≈ 8.36 µM)
- MFC (NRRL11823, 24 h, R. oryzae type I NRRL11823, 24 h, read-out: MFC): 3.12 µg/mL (≈ 8.36 µM)
- MIC (NRRL11823, 24 h, R. oryzae type I NRRL11823, 24 h, read-out: MIC): 3.12 µg/mL (≈ 8.36 µM)
- MFC (NRRL11823, 48 h, R. oryzae type I NRRL11823, 48 h, read-out: MFC): 6.25 µg/mL (≈ 16.7 µM)
- MIC (NRRL11823, 48 h, R. oryzae type I NRRL11823, 48 h, read-out: MIC): 6.25 µg/mL (≈ 16.7 µM)
- MFC (NRRL13142, 24 h, R. oryzae type I NRRL13142, 24 h, read-out: MFC): 6.25 µg/mL (≈ 16.7 µM)
- MIC (NRRL13142, 24 h, R. oryzae type I NRRL13142, 24 h, read-out: MIC): 6.25 µg/mL (≈ 16.7 µM)
- MFC (NRRL13142, 48 h, R. oryzae type I NRRL13142, 48 h, read-out: MFC): 3.12 µg/mL (≈ 8.36 µM)
- MIC (NRRL13142, 48 h, R. oryzae type I NRRL13142, 48 h, read-out: MIC): 3.12 µg/mL (≈ 8.36 µM)
- MFC (NRRL13440, 24 h, R. oryzae type 1 NRRL13440, 24 h, read-out: MFC): 12.5 µg/mL (≈ 33.5 µM)
- MIC (NRRL13440, 24 h, R. oryzae type 1 NRRL13440, 24 h, read-out: MIC): 1.56 µg/mL (≈ 4.18 µM)
- MFC (NRRL13440, 48 h, R. oryzae type 1 NRRL13440, 48 h, read-out: MFC): 12.5 µg/mL (≈ 33.5 µM)
- MIC (NRRL13440, 48 h, R. oryzae type 1 NRRL13440, 48 h, read-out: MIC): 1.56 µg/mL (≈ 4.18 µM)
- MFC (NRRL13533, 24 h, R. oryzae type I NRRL13533, 24 h, read-out: MFC): 6.25 µg/mL (≈ 16.7 µM)
- MIC (NRRL13533, 24 h, R. oryzae type I NRRL13533, 24 h, read-out: MIC): 1.56 µg/mL (≈ 4.18 µM)
- MFC (NRRL13533, 48 h, R. oryzae type I NRRL13533, 48 h, read-out: MFC): 6.25 µg/mL (≈ 16.7 µM)
- MIC (NRRL13533, 48 h, R. oryzae type I NRRL13533, 48 h, read-out: MIC): 1.56 µg/mL (≈ 4.18 µM)
- MFC (NRRL18148, 24 h, R. oryzae type II NRRL 18148, 24 h, read-out: MFC): 0.78 µg/mL (≈ 2.09 µM)
- MIC (NRRL18148, 24 h, R. oryzae type II NRRL 18148, 24 h, read-out: MIC): 0.78 µg/mL (≈ 2.09 µM)
- MFC (NRRL18148, 48 h, R. oryzae type II NRRL 18148, 48 h, read-out: MFC): 0.78 µg/mL (≈ 2.09 µM)
- MIC (NRRL18148, 48 h, R. oryzae type II NRRL 18148, 48 h, read-out: MIC): 0.78 µg/mL (≈ 2.09 µM)
- MFC (NRRL21251, 24 h, R. oryzae type I NRRL 21251, 24 h, read-out: MFC): 6.25 µg/mL (≈ 16.7 µM)
- MIC (NRRL21251, 24 h, R. oryzae type I NRRL 21251, 24 h, read-out: MIC): 3.12 µg/mL (≈ 8.36 µM)
- MFC (NRRL21251, 48 h, R. oryzae type I NRRL 21251, 48 h, read-out: MFC): 6.25 µg/mL (≈ 16.7 µM)
- MIC (NRRL21251, 48 h, R. oryzae type I NRRL 21251, 48 h, read-out: MIC): 6.25 µg/mL (≈ 16.7 µM)
- MFC (NRRL21396, 24 h, R. oryzae type I NRRL21396, 24 h, read-out: MFC): 12.5 µg/mL (≈ 33.5 µM)
- MIC (NRRL21396, 24 h, R. oryzae type I NRRL21396, 24 h, read-out: MIC): 12.5 µg/mL (≈ 33.5 µM)
- MFC (NRRL21396, 48 h, R. oryzae type I NRRL21396, 48 h, read-out: MFC): 6.25 µg/mL (≈ 16.7 µM)
- MIC (NRRL21396, 48 h, R. oryzae type I NRRL21396, 48 h, read-out: MIC): 1.56 µg/mL (≈ 4.18 µM)
- MFC [3]: 1.56 µg/mL (≈ 4.18 µM)
- MIC [3]: 1.56 µg/mL (≈ 4.18 µM)
- MFC (NRRL21446, 24 h, R. oryzae type II NRRL 21446, 24 h, read-out: MFC): 12.5 µg/mL (≈ 33.5 µM)
- MIC (NRRL21446, 24 h, R. oryzae type II NRRL 21446, 24 h, read-out: MIC): 6.25 µg/mL (≈ 16.7 µM)
- MFC (NRRL21446, 48 h, R. oryzae type II NRRL 21446, 48 h, read-out: MFC): 6.25 µg/mL (≈ 16.7 µM)
- MIC (NRRL21446, 48 h, R. oryzae type II NRRL 21446, 48 h, read-out: MIC): 6.25 µg/mL (≈ 16.7 µM)
- MFC (NRRL21447, 24 h, R. oryzae type II NRRL 21447, 24 h, read-out: MFC): 12.5 µg/mL (≈ 33.5 µM)
- MIC (NRRL21447, 24 h, R. oryzae type II NRRL 21447, 24 h, read-out: MIC): 6.25 µg/mL (≈ 16.7 µM)
- MFC (NRRL21447, 48 h, R. oryzae type II NRRL 21447, 48 h, read-out: MFC): 6.25 µg/mL (≈ 16.7 µM)
- MIC (NRRL21447, 48 h, R. oryzae type II NRRL 21447, 48 h, read-out: MIC): 6.25 µg/mL (≈ 16.7 µM)
- MFC (NRRL21477, 24 h, R. oryzae type II NRRL 21477, 24 h, read-out: MFC): 1.56 µg/mL (≈ 4.18 µM)
- MIC (NRRL21477, 24 h, R. oryzae type II NRRL 21477, 24 h, read-out: MIC): 1.56 µg/mL (≈ 4.18 µM)
- MFC (NRRL21477, 48 h, R. oryzae type II NRRL 21477, 48 h, read-out: MFC): 1.56 µg/mL (≈ 4.18 µM)
- MIC (NRRL21477, 48 h, R. oryzae type II NRRL 21477, 48 h, read-out: MIC): 1.56 µg/mL (≈ 4.18 µM)
- MFC (NRRL21628, 24 h, R. oryzae type II NRRL 21628, 24 h, read-out: MFC): 0.78 µg/mL (≈ 2.09 µM)
- MIC (NRRL21628, 24 h, R. oryzae type II NRRL 21628, 24 h, read-out: MIC): 0.78 µg/mL (≈ 2.09 µM)
- MFC (NRRL21628, 48 h, R. oryzae type II NRRL 21628, 48 h, read-out: MFC): 0.78 µg/mL (≈ 2.09 µM)
- MIC (NRRL21628, 48 h, R. oryzae type II NRRL 21628, 48 h, read-out: MIC): 0.78 µg/mL (≈ 2.09 µM)
- MFC (NRRL21789, 24 h, R. oryzae type II NRRL 21789, 24 h, read-out: MFC): 0.39 µg/mL (≈ 1.04 µM)
- MIC (NRRL21789, 24 h, R. oryzae type II NRRL 21789, 24 h, read-out: MIC): 0.39 µg/mL (≈ 1.04 µM)
- MFC (NRRL21789, 48 h, R. oryzae type II NRRL 21789, 48 h, read-out: MFC): 0.39 µg/mL (≈ 1.04 µM)
- MIC (NRRL21789, 48 h, R. oryzae type II NRRL 21789, 48 h, read-out: MIC): 0.39 µg/mL (≈ 1.04 µM)
- MIC90 (24 h): 12.5 µg/mL (≈ 33.5 µM)
- MIC90 (48 h): 6.25 µg/mL (≈ 16.7 µM)
